Experimental findings from ChEMBL document CHEMBL3792363, “2,6-Bis(benzimidazol-2-yl)pyridine as a potent transmembrane anion transporter” (Bioorg Med Chem Lett, 2016) are described below.

Data set [1] in a line: Binding affinity to nitrate anion assessed as association constant by spectrometric titration method relative to Me2bimpy.
The nature of data set [2]: Ionophoric activity assessed as induction of pH discharge across EYPC based liposomal membranes using chloride salt of Rb+ ions at 3% by pyranine based fluorescence assay. Particulars: artificial membrane; call rule not given here.
A short description of data set [3]: Binding affinity to bromide anion assessed as association constant by spectrometric titration method relative to Me2bimpy.
Data set [4] in a line: Ionophoric activity assessed as induction of pH discharge across POPC based liposomal membranes at 1 to 5% by pyranine based fluorescence assay. The following applies: artificial membrane.
Data set [5] is described as follows: Ionophoric activity assessed as induction of pH discharge across EYPC based liposomal membranes using chloride salt of K+ ions at 3% by pyranine based fluorescence assay. Particulars: artificial membrane.
The nature of data set [6]: Binding affinity to bromide anion assessed as association constant by spectrometric titration method.
Data set [7] can be described thus: Ionophoric activity assessed as induction of pH discharge across POPC/cholesterol (30%) based liposomal membranes at 1 to 5% by pyranine based fluorescence assay. Particulars: artificial membrane.
Data set [8] in a line: Binding affinity to iodide anion assessed as association constant by spectrometric titration method.
The nature of data set [9]: Ionophoric activity assessed as induction of chloride influx into EYPC based liposomal membranes at 1 to 5% in presence of intravesicular and extravesicular by lucigenin based fluorescence assay. Particulars: artificial membrane.
Data set [10] is described as follows: Binding affinity to chloride anion assessed as association constant by spectrometric titration method.
Data set [11] in a line: Ionophoric activity assessed as induction of chloride influx into EYPC based liposomal membranes at 1 to 5% in presence of intravesicular Na2SO4 by lucigenin based fluorescence assay. The following applies: artificial membrane.
A short description of data set [12]: Ionophoric activity assessed as induction of chloride influx into EYPC based liposomal membranes at 5% measured within 5 mins by lucigenin based fluorescence assay. Particulars: artificial membrane.
A short description of data set [13]: Ionophoric activity assessed as induction of pH discharge across EYPC based liposomal membranes using chloride salt of Na+ ions at 3% by pyranine based fluorescence assay. The following applies: artificial membrane.
A short description of data set [14]: Ionophoric activity assessed as induction of pH discharge across EYPC based liposomal membranes using chloride salt of Cs+ ions at 3% by pyranine based fluorescence assay. The following applies: artificial membrane.
A short description of data set [15]: Binding affinity to chloride anion assessed as association constant by spectrometric titration method relative to Me2bimpy.
Data set [16] in a line: Ionophoric activity assessed as induction of pH discharge across EYPC based liposomal membranes at 1 to 5% by pyranine based fluorescence assay. The following applies: artificial membrane.
Data set [17] is described as follows: Binding affinity to nitrate anion assessed as association constant by spectrometric titration method.
Data set [18] in a line: Binding affinity to iodide anion assessed as association constant by spectrometric titration method relative to Me2bimpy.
Data set [19] can be described thus: Ionophoric activity assessed as induction of chloride influx into EYPC based liposomal membranes at 1 to 5% in presence of intravesicular NaNO3 by lucigenin based fluorescence assay. Particulars: artificial membrane.
A short description of data set [20]: Ionophoric activity assessed as induction of pH discharge across EYPC based liposomal membranes using chloride salt of Li+ ions at 3% by pyranine based fluorescence assay. Particulars: artificial membrane.
A short description of data set [21]: Ionophoric activity assessed as induction of chloride influx into EYPC based liposomal membranes at 15% measured within 5 mins by lucigenin based fluorescence assay. Particulars: artificial membrane.
The nature of data set [22]: Ionophoric activity assessed as induction of pH discharge across EYPC based liposomal membranes at 5% by pyranine based fluorescence assay. The following applies: artificial membrane.

Turning to `c1cc(-c2nc3ccccc3[nH]2)nc(-c2nc3ccccc3[nH]2)c1`, the fold change (FC) came out at 6.8 in data set [1], 6 in data set [3], 22 in data set [15] and 2.2 in [18]. For the same compound, the Activity result was “Active” in data set [2]; “Not Active” in data set [4]; “Active” in data set [5]; “Not Active” in data set [7]; “Active” in data set [9]; “Active” in data set [11]. Moreover, the Activity in data set [12] is 35%; in data set [13] it was “Active”; in data set [14], “Active”; in data set [16], “Active”; in data set [19] it was “Active”; in data set [20] it was “Active”. The Ka worked out at 3.04 ×10³ /M in data set [6], 1.57 ×10³ /M in data set [8], 8.71 ×10³ /M in [10] and 4.9 ×10³ /M in data set [17].
For the compound `CCCCCCCCCCCCNC(=O)[C@@H](C(C)C)n1cc[n+](Cc2cccc(C[n+]3ccn([C@@H](C(=O)NCCCCCCCCCCCC)C(C)C)c3)c2)c1.O=S(=O)([N-]S(=O)(=O)C(F)(F)F)C(F)(F)F.O=S(=O)([N-]S(=O)(=O)C(F)(F)F)C(F)(F)F`, the Activity in [21] was determined as 35%.
The same measure, in the same setting: for `O=C(NCc1ccccc1)[C@@H](Cc1ccccc1)n1cc[n+](Cc2cccc(C[n+]3ccn([C@H](Cc4ccccc4)C(=O)NCc4ccccc4)c3)c2)c1.O=S(=O)([N-]S(=O)(=O)C(F)(F)F)C(F)(F)F.O=S(=O)([N-]S(=O)(=O)C(F)(F)F)C(F)(F)F` the value was 35%.
With `c1cc(-c2nc3ccccc3[nH]2)cc(-c2nc3ccccc3[nH]2)c1`, the outcome in [22] was Active.
Regarding `CC(C)[C@H](C(=O)NCc1ccccc1)n1cc[n+](Cc2cccc(C[n+]3ccn([C@@H](C(=O)NCc4ccccc4)C(C)C)c3)c2)c1.O=S(=O)([N-]S(=O)(=O)C(F)(F)F)C(F)(F)F.O=S(=O)([N-]S(=O)(=O)C(F)(F)F)C(F)(F)F`, the Activity in data set [21] is 35%.
For `Cn1c(-c2cccc(-c3nc4ccccc4n3C)n2)nc2ccccc21`, the Ka in data set [6] was 5.03 ×10² /M; in data set [8], 7.07 ×10² /M; in data set [10], 4 ×10² /M; in data set [17], 7.23 ×10² /M. Also, the Activity result in data set [16] and in data set [19] was “Not Active” throughout.
